Laboratory results published in article PMC9823088, “The oral selective estrogen receptor degrader GDC-0810 (ARN-810) in postmenopausal women with hormone receptor-positive HER2-negative (HR + /HER2 −) advanced/metastatic breast cancer” (Breast Cancer Research and Treatment, 2022).

Key:
Format in all cases: in vivo, human
[1] = Plasma pharmacokinetics of GDC-0810 and glucuronide metabolites
Protocol: (§1) Blood samples were collected for pharmacokinetic assessments. Tumor assessments were performed at screening and every 8 weeks from cycle 1, day 1 (C1D1). Radiographic assessment of objective tumor response or disease progression was based on Response Evaluation Criteria in Solid Tumors (RECIST v1.1). Transvaginal ultrasound scans were performed to monitor endometrial thickness at screening, at every 6 months from C1D1, and at the end of treatment. Imaging with [^18F]-fluoroestradiol positron emission tomography (FES-PET) was performed to quantify ER expression in tumors and to assess for pharmacodynamic response. Further assessment details are provided in Supplementary Methods.
CYP2B6 and CYP2C enzymes. […]
(§2) Blood samples were collected for pharmacokinetic assessment on lead-in day −7 and cycle 2 day 1 (C2D1) at predose (0 hour) and postdose (0.5, 1, 1.5, 2, 3, 4, 6, 8, and 24 hours), (plus at 48 hours postdose for day−7). Full plasma pharmacokinetic profiles were obtained for GDC-0810 and its glucuronide metabolites (acyl-glucuronide and N-glucuronide) using a validated liquid chromatography/ tandem mass spectrometry method, and analyzed using non-compartmental methods for all patients in the dose escalation cohorts.
(§3) Tumor assessments were performed at screening and every 8 weeks from cycle-1, day-1 […]

ER = test: [18F]-fluoroestradiol PET (FES-PET) pharmacodynamic response
Protocol: as §1, with “Methods. […]” for “Methods.”
as §3
Imaging with [18F]-fluoroestradiol positron emission tomography
(FES-PET) was performed to quantify ER expression in tumors and to assess for pharmacodynamic response. In phase Ia, FES-PET scans were acquired at screening and on C2D3 at 18-24 hours post the C2D2 dose. Scans were repeated during cycle 3 if the C2D3 scan […]
(§4) In phase IIa cohort A1 patients, FES-PET scans were acquired at screening and on C3D3 at 18-24 hours post the C3D2 dose. Scans were repeated at the time of progression if feasible. The mean percent change from baseline in SUVmax (corrected for background activity) for up to five index lesions was calculated for each patient; more details are presented in (1). Optional tumor biopsies were collected at baseline (screening)

[2] = Endometrial thickness by transvaginal ultrasound
Protocol: as §1, with “Methods. […]” for “Methods.”
Tumor assessments were performed at screening and every 8 weeks from cycle-1, day-1 (C1D1). Radiographic assessment of objective tumor response or disease progression was based on Response Evaluation Criteria in Solid Tumors (RECIST v1.1). Transvaginal ultrasound scans were performed to monitor endometrial thickness at screening, at every 6 months from C1D1, and at the end of treatment. […]

ER and Ki-67 = test: Paired tumor biopsies, ER protein levels and Ki-67; conditions: after one cycle (28 days of treatment); samples from 3 patients only, no conclusions could be drawn
Protocol: CYP2B6 and CYP2C enzymes. No hormonal therapy, chemotherapy, immunotherapy, or experimental anti-cancer medications were permitted during the study.
as §2
Tumor assessments were performed at screening and every 8 weeks from cycle-1, day-1 (C1D1). Radiographic assessment of objective tumor response or disease progression was based on Response Evaluation Criteria in Solid Tumors (RECIST v1.1). […] Imaging with [18F]-fluoroestradiol positron emission tomography (FES-PET) was performed to quantify ER expression in tumors and to assess for pharmacodynamic response. […]
as §4, with “Scans were repeated at the time of progression if feasible.” left out, “Optional tumor biopsies were collected at baseline (screening)” left out

In the case of CC/C(=C(/c1ccc(/C=C/C(=O)O)cc1)c1ccc2[nH]ncc2c1)c1ccc(F)cc1Cl [GDC-0810], the “average exposure at steady state (AUC0-24 h), non-fasted compared to fasted” value ([1]; 600 mg QD) is reported as 1.5 fold, the “average exposure at steady state (Cmax), non-fasted compared to fasted” value ([1]; 600 mg QD) is reported as “twofold” and the drug accumulation ([1]; following multiple dosing) is reported as “Minimal drug accumulation”. For the same molecule, the half-life ([1]; human, plasma, oral, 600-mg QD, non-fasted condition, read-out: mean terminal half-life (converted)) was roughly 8 h, the Tmax ([1]; human, plasma, oral, after dosing, read-out: median Tmax) was 1 to 3 h and the pharmacokinetic profile ([1]; up to 600 mg) was “linear and dose proportional”. The “patients with complete or near-complete reduction in FES uptake” value (ER; 600 mg QD (fasting and non-fasting)) was no less than 80%, the “response rates by FES-PET” value (ER; 600-mg QD, fasting, and non-fasting, including tumors harboring ESR1 mutations) was 80–100% and the “patients with complete or near complete (> 90%) suppression of FES uptake” value (“patients … (> 90%) suppression of FES uptake” for short) (ER; all patients who had FES-PET scans) was 78%. The FES reduction (ER; in vivo) was greater than 90%, the “patients … (> 90%) suppression of FES uptake” value (ER; patients with tumors harboring ESR1 mutations) was 18 of 26 and the “patients … (> 90%) suppression of FES uptake” value (ER; phase IIa dose expansion, baseline and C3D3 scans) was 7 of 10. The “patients with a single lesion considered FES-avid (SUVmax corrected > 1.5)” value (ER; phase Ia dose escalation, C2D3) was “two”, the “patients … (> 90%) suppression of FES uptake” value (ER; phase Ia, baseline and C2D3 scans) was 24 of 30 and the “patients with an increase in the thickness of endometrium compared to baseline” value ([2]; 10 patients in phase Ia with baseline and at least one follow-up scan) was 9 (90%) n (%). The “change in endometrial thickness, range” value ([2]; phase Ia) was 0 to 11 mm, the “mean change in endometrial thickness” value ([2]; phase Ia) was 4.4 mm and the “median change in endometrial thickness” value ([2]; phase Ia) was 3.5 mm. For the same molecule, the “ER and Ki-67 levels in tumor specimens” value (ER and Ki-67) was “reduced ER and Ki-67 levels”.
